{
  "source": "ChEMBL document CHEMBL1141528",
  "about": "“Identification of pyrrolo[2,1-f][1,2,4]triazine-based inhibitors of Met kinase” (Bioorg Med Chem Lett, 2008)",
  "key": {"[1]": {"assay": "Antiproliferative activity against human GTL16 cells after 72 hrs by tetrazolium-based colorimetric assay", "details": "GTL 16, 72 h"}, "[2]": {"assay": "Aqueous solubility at pH 6.5", "format": "physicochemical"}, "[3]": {"assay": "Inhibition of PKA"}, "[4]": {"assay": "Metabolic stability per 10^6 cells in mouse hepatocytes", "format": "ADME, cell-based, Hepatocyte"}, "[5]": {"assay": "Clearance in mouse at 20 mg/kg, iv", "format": "ADME, organism-based", "design": "dose 20 mg/kg, route intravenous", "details": "in vivo"}, "[6]": {"target": "Vascular endothelial growth factor receptor 2 (Homo sapiens, UniProt P35968)", "sequence (P35968 whole entry)": "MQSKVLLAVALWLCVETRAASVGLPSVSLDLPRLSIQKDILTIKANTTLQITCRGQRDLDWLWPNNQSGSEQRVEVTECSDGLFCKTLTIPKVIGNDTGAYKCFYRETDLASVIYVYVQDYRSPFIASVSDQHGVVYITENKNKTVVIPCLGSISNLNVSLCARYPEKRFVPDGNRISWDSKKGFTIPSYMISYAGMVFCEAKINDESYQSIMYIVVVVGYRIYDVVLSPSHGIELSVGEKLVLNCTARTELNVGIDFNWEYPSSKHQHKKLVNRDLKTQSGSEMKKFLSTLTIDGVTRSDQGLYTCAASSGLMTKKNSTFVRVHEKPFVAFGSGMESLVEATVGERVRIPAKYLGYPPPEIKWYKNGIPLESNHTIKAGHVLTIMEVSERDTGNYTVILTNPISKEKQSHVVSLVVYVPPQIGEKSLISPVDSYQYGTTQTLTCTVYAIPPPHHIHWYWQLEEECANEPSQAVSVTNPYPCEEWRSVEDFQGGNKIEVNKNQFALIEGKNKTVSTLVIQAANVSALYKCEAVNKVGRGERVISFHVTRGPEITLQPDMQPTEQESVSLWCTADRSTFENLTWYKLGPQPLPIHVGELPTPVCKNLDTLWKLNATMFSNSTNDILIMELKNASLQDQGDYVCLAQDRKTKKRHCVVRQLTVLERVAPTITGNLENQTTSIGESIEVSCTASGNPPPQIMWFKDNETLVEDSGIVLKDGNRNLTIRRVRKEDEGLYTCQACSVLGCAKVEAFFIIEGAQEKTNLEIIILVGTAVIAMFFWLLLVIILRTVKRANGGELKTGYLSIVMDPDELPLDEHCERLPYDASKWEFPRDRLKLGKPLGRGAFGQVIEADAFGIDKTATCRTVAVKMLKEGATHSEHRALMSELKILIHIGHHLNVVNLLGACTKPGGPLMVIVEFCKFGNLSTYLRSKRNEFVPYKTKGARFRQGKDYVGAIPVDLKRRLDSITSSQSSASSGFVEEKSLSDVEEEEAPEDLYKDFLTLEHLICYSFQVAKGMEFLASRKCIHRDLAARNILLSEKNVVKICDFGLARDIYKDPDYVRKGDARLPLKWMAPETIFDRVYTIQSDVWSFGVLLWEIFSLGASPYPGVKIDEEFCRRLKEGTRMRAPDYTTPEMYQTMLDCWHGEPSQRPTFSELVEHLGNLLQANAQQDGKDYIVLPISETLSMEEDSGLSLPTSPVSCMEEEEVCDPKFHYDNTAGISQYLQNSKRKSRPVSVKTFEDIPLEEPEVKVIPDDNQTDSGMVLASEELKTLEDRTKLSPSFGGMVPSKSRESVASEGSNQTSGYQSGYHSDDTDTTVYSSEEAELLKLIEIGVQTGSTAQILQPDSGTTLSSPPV", "assay": "Inhibition of VEGFR2"}, "[7]": {"target": "Tyrosine-protein kinase Lck (Homo sapiens, UniProt P06239)", "sequence (P06239 whole entry)": "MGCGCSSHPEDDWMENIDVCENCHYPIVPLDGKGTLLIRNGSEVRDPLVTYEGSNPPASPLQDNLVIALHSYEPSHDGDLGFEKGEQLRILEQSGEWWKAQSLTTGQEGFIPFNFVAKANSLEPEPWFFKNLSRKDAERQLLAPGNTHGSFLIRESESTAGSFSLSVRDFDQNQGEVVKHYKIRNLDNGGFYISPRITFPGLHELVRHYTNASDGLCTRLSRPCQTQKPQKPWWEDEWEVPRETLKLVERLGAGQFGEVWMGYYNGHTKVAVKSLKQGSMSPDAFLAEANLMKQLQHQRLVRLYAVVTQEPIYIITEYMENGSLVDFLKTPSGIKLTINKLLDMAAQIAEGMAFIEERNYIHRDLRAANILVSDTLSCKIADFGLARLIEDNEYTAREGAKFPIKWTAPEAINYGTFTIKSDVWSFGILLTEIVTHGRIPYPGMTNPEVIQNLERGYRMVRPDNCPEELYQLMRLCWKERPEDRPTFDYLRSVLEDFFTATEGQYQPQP", "assay": "Inhibition of lck"}, "[8]": {"assay": "Permeability across human Caco-2 cells", "format": "ADME, cell-based", "details": "read-out: permeability"}, "Insulin receptor": {"target": "Insulin receptor (Homo sapiens, UniProt P06213)", "assay": "Inhibition of InsR"}, "[9]": {"assay": "Bioavailability in mouse at 20 mg/kg, ip", "format": "ADME, organism-based", "details": "in vivo"}, "[10]": {"target": "Receptor tyrosine-protein kinase erbB-2 (Homo sapiens, UniProt P04626)", "assay": "Inhibition of HER2"}, "[11]": {"target": "MAP kinase-activated protein kinase 2 (Homo sapiens, UniProt P49137)", "sequence (P49137 whole entry)": "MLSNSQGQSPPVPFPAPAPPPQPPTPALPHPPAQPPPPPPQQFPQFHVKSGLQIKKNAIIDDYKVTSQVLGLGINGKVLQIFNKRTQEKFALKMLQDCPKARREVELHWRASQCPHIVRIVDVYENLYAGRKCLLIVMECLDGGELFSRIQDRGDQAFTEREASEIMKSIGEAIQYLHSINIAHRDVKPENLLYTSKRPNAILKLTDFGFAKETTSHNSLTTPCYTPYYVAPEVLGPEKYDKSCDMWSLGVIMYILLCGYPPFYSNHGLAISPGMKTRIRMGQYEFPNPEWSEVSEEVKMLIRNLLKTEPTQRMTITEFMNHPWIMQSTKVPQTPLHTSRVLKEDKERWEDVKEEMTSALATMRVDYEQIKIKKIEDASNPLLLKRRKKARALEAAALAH", "assay": "Inhibition of MK2"}, "[12]": {"target": "High affinity nerve growth factor receptor (Homo sapiens, UniProt P04629)", "sequence (P04629 whole entry)": "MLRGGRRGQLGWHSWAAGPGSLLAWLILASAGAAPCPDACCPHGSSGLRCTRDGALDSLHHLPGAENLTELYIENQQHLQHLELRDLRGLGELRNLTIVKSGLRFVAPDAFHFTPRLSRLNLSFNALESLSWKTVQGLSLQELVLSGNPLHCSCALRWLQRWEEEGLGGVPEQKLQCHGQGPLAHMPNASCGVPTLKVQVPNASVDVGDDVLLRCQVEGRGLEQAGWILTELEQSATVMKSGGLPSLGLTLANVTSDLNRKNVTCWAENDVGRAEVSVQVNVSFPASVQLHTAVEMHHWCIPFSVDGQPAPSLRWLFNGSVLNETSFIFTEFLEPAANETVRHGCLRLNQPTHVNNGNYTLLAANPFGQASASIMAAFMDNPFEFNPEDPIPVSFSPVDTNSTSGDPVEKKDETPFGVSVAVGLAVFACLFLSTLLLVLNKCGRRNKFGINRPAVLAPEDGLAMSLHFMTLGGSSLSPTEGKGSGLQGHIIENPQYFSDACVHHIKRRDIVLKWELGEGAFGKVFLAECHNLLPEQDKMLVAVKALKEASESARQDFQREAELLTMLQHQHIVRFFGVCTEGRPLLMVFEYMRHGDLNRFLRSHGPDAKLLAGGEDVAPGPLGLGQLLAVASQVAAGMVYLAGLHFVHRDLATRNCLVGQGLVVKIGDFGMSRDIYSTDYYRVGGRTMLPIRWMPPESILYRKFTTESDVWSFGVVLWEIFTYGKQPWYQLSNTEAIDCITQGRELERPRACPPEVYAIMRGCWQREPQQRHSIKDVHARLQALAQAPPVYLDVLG", "assay": "Inhibition of TrkA"}, "Liver": {"system": "Liver", "assay": "Metabolic stability in mouse liver microsomes", "format": "ADME, Microsome"}, "[13]": {"target": "Cyclin-dependent kinase 2 (Homo sapiens, UniProt P24941)", "assay": "Inhibition of CDK2"}, "[14]": {"target": "Insulin-like growth factor 1 receptor (Homo sapiens, UniProt P08069)", "sequence (P08069 31-736 limits assumed)": "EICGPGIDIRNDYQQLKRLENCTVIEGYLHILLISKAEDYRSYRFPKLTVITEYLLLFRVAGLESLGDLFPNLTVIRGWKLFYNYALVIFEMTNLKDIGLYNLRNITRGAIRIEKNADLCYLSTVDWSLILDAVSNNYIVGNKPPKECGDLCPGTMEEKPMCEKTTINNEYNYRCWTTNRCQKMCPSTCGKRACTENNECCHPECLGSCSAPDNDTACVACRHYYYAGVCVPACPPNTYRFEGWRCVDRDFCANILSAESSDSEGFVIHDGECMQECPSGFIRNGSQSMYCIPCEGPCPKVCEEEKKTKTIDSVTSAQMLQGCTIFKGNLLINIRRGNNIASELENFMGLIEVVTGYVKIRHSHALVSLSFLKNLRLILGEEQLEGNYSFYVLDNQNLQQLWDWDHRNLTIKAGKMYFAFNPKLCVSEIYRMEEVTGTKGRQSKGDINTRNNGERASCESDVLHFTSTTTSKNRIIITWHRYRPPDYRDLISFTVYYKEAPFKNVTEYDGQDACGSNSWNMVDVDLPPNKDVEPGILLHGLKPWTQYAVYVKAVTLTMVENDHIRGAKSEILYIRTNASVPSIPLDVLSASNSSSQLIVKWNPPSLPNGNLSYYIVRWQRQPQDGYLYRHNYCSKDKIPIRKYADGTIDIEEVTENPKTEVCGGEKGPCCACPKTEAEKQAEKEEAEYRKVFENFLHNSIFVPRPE", "sequence (P08069 741-1367 limits assumed)": "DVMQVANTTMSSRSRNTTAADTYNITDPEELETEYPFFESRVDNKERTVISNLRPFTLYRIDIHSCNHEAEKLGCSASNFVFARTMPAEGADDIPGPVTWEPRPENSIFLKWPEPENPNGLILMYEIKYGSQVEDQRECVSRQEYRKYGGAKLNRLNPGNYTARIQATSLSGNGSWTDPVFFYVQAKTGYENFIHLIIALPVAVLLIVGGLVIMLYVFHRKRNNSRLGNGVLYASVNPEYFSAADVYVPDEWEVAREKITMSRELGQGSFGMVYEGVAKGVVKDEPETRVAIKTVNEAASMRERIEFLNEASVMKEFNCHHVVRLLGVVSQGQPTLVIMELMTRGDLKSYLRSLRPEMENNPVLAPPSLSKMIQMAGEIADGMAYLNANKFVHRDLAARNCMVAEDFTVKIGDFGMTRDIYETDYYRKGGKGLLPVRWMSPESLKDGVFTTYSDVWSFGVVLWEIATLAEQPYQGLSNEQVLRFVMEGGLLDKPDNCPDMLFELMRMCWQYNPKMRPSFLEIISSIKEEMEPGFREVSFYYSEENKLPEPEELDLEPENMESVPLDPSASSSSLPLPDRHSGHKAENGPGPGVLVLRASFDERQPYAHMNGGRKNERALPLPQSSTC", "assay": "Inhibition of IGF1R"}, "[15]": {"assay": "Inhibition of PKC"}, "[16]": {"assay": "Cmax in mouse at 50 mg/kg, po", "format": "ADME, organism-based", "design": "dose 50 mg/kg, route oral", "details": "in vivo"}, "[17]": {"target": "Hepatocyte growth factor receptor (Homo sapiens, UniProt P08581)", "assay": "Inhibition of human recombinant c-Met expressed in insect cell-baculovirus expression system"}},
  "data": [
    {"smiles": "Cc1c(OCCN2CCN(C)CC2)cn2ncnc(Oc3ccc(NC(=O)c4cc(Cl)ccc4F)cc3F)c12", "values": [
      {"measurement": "IC50", "setting": "[1]", "result": 270, "unit": "nM"}
    ]},
    {"smiles": "O=C(Cc1ccc(F)cc1)NC(=O)Nc1ccc(Oc2ncnn3ccc(CN4CCNCC4)c23)c(F)c1", "values": [
      {"measurement": "solubility", "setting": "[2]", "result": 290, "unit": "µg/mL"}
    ]},
    {"smiles": "NC1CCN(Cc2ccn3ncnc(Oc4ccc(NC(=O)NC(=O)Cc5ccc(F)cc5)cc4F)c23)CC1", "values": [
      {"measurement": "IC50", "setting": "[3]", "result": "> 5", "unit": "µM"},
      {"measurement": "Stability", "setting": "[4]", "result": 2, "unit": "pmol/min"},
      {"measurement": "clearance", "setting": "[5]", "result": 25, "unit": "mL/min/kg"},
      {"measurement": "IC50", "setting": "[6]", "result": "> 5", "unit": "µM"},
      {"measurement": "IC50", "setting": "[7]", "result": "> 5", "unit": "µM"},
      {"measurement": "Papp", "setting": "[8]", "result": "< 1.5", "unit": "×10⁻⁶ cm/s"},
      {"measurement": "IC50", "setting": "Insulin receptor", "result": "> 5", "unit": "µM"},
      {"measurement": "bioavailability", "setting": "[9]", "result": 81, "unit": "%"},
      {"measurement": "IC50", "setting": "[10]", "result": "> 5", "unit": "µM"},
      {"measurement": "IC50", "setting": "[11]", "result": "> 5", "unit": "µM"},
      {"measurement": "IC50", "setting": "[12]", "result": 200, "unit": "nM"},
      {"measurement": "Stability", "setting": "Liver", "result": 0, "unit": "nmol/min/mg"},
      {"measurement": "IC50", "setting": "[13]", "result": "> 5", "unit": "µM"},
      {"measurement": "IC50", "setting": "[14]", "result": "> 5", "unit": "µM"},
      {"measurement": "IC50", "setting": "[15]", "result": "> 5", "unit": "µM"},
      {"measurement": "Cmax", "setting": "[16]", "result": 780, "unit": "nM"}
    ]},
    {"smiles": "NC1CCC(=Cc2ccn3ncnc(Oc4ccc(NC(=O)NC(=O)Cc5ccc(F)cc5)cc4F)c23)CC1", "note": "(stereo unspecified)", "values": [
      {"measurement": "IC50", "setting": "[1]", "result": 140, "unit": "nM"}
    ]},
    {"smiles": "Cc1c(OCCCN(C)C)cn2ncnc(Oc3ccc(NC(=O)CC(=O)Nc4ccc(F)cc4)cc3F)c12", "values": [
      {"measurement": "IC50", "setting": "[1]", "result": 270, "unit": "nM"}
    ]},
    {"smiles": "O=C(Cc1ccc(F)cc1)NC(=O)Nc1ccc(Oc2ncnn3ccc(Cl)c23)c(F)c1", "values": [
      {"measurement": "IC50", "setting": "[17]", "result": "> 2000", "unit": "nM"}
    ]},
    {"smiles": "Cc1c(OCCN2CCN(C)CC2)cn2ncnc(Oc3ccc(NC(=O)c4ccccc4F)cc3F)c12", "values": [
      {"measurement": "IC50", "setting": "[1]", "result": 840, "unit": "nM"}
    ]},
    {"smiles": "Cc1c(OCCN2CCN(C)CC2)cn2ncnc(Oc3ccc(NC(=O)c4cc(F)ccc4F)cc3F)c12", "values": [
      {"measurement": "IC50", "setting": "[1]", "result": "> 1000", "unit": "nM"}
    ]},
    {"smiles": "Cc1c(OCCN2CCN(C)CC2)cn2ncnc(Oc3ccc(NC(=O)c4c(F)cccc4F)cc3F)c12", "values": [
      {"measurement": "IC50", "setting": "[1]", "result": "> 1000", "unit": "nM"}
    ]},
    {"smiles": "Cc1c(OCCCN(C)C)cn2ncnc(Oc3ccc(NC(=O)c4c(F)cccc4F)cc3F)c12", "values": [
      {"measurement": "IC50", "setting": "[1]", "result": 170, "unit": "nM"}
    ]},
    {"smiles": "Cc1c(OCCCN(C)C)cn2ncnc(Oc3ccc(NC(=O)NC(=O)Cc4ccc(F)cc4)cc3F)c12", "values": [
      {"measurement": "IC50", "setting": "[1]", "result": 68, "unit": "nM"}
    ]}
  ]
}
